Measurements taken from the NIST ThermoML archive (doi:10.1021/je500067f).

Details: 101.33 kPa, Liquid; for viscosity: Capillary tube (Ostwald / Ubbelohde) method; for mass density: Pycnometric method

C[S+](C)[O-] [dimethyl sulfoxide]
Details | mass density [kg/m3] | viscosity [mPa·s]
298.15 K | 1095.2 | 2
303.15 K | 1090.6 | 1.8
308.15 K | 1085.9 | 1.61
313.15 K | 1081.3 | 1.44
318.15 K | 1075.3 | 1.33
